Experimental data published in ChEMBL document CHEMBL1649393, “Synthesis and antimicrobial activity of thiosemicarbazides, s-triazoles and their Mannich bases bearing 3-chlorophenyl moiety” (2011).
≈ marks a conversion by molar mass, not a printed value.

Assays:
Type in all cases: functional
[1] = system: Staphylococcus epidermidis; assay: Antimicrobial activity against Staphylococcus epidermidis ATCC 12228 after 18 hrs by broth microdilution method; conditions: ATCC 12228, 18 h
Staphylococcus aureus [2] = assay: Antimicrobial activity against Staphylococcus aureus ATCC 25923 after 18 hrs by broth microdilution method; conditions: ATCC 25923, 18 h
Proteus mirabilis [3] = assay: Antimicrobial activity against Proteus mirabilis ATCC 12453 assessed as >99.9 % reduction in CFU after 18 hrs by broth microdilution method; conditions: ATCC 12453, 18 h
Staphylococcus aureus [4] = assay: Antimicrobial activity against Staphylococcus aureus ATCC 6538 after 18 hrs by broth microdilution method; conditions: ATCC 6538, 18 h
Escherichia coli [5] = assay: Antimicrobial activity against Escherichia coli ATCC 25922 after 18 hrs by broth microdilution method; conditions: ATCC 25922, 18 h
Proteus mirabilis [6] = assay: Antimicrobial activity against Proteus mirabilis ATCC 12453 after 18 hrs by broth microdilution method; conditions: ATCC 12453, 18 h
Bacillus subtilis [7] = assay: Antimicrobial activity against Bacillus subtilis ATCC […] after 18 hrs by broth microdilution method
Staphylococcus aureus [8] = assay: Antimicrobial activity against Staphylococcus aureus ATCC 25923 assessed as >99.9 % reduction in CFU after 18 hrs by broth microdilution method; conditions: ATCC 25923, 18 h
Klebsiella pneumoniae [9] = assay: Antimicrobial activity against Klebsiella pneumoniae ATCC 13883 assessed as >99.9 % reduction in CFU after 18 hrs by broth microdilution method; conditions: ATCC 13883, 18 h
Bacillus cereus [10] = assay: Antimicrobial activity against Bacillus cereus ATCC 10876 assessed as >99.9 % reduction in CFU after 18 hrs by broth microdilution method; conditions: ATCC 10876, 18 h
Micrococcus luteus [11] = assay: Antimicrobial activity against Micrococcus luteus ATCC 10240 assessed as >99.9 % reduction in CFU after 18 hrs by broth microdilution method; conditions: ATCC 10240, 18 h
Staphylococcus aureus [12] = assay: Antimicrobial activity against Staphylococcus aureus ATCC 6538 assessed as >99.9 % reduction in CFU after 18 hrs by broth microdilution method; conditions: ATCC 6538, 18 h
Bacillus subtilis [13] = assay: Antimicrobial activity against Bacillus subtilis ATCC […] assessed as >99.9 % reduction in CFU after 18 hrs by broth microdilution method
Micrococcus luteus [14] = assay: Antimicrobial activity against Micrococcus luteus ATCC 10240 after 18 hrs by broth microdilution method; conditions: ATCC 10240, 18 h
Klebsiella pneumoniae [15] = assay: Antimicrobial activity against Klebsiella pneumoniae ATCC 13883 after 18 hrs by broth microdilution method; conditions: ATCC 13883, 18 h
[16] = system: Staphylococcus epidermidis; assay: Antimicrobial activity against Staphylococcus epidermidis ATCC 12228 assessed as >99.9 % reduction in CFU after 18 hrs by broth microdilution method; conditions: ATCC 12228, 18 h
Bacillus cereus [17] = assay: Antimicrobial activity against Bacillus cereus ATCC 10876 after 18 hrs by broth microdilution method; conditions: ATCC 10876, 18 h
Escherichia coli [18] = assay: Antimicrobial activity against Escherichia coli ATCC 25922 assessed as >99.9 % reduction in CFU after 18 hrs by broth microdilution method; conditions: ATCC 25922, 18 h

Row | Structure (SMILES) | MIC [1] | MIC (Staphylococcus aureus [2]) | MBC (Proteus mirabilis [3]; read-out: MBC) | MIC (Staphylococcus aureus [4]) | MIC (Escherichia coli [5]) | MIC (Proteus mirabilis [6]; read-out: MIC) | MIC (Bacillus subtilis [7]) | MBC (Staphylococcus aureus [8]) | MBC (Klebsiella pneumoniae [9]; read-out: MBC) | MBC (Bacillus cereus [10]) | MBC (Micrococcus luteus [11]) | MBC (Staphylococcus aureus [12]) | MBC (Bacillus subtilis [13]) | MIC (Micrococcus luteus [14]) | MIC (Klebsiella pneumoniae [15]) | MBC [16] | MIC (Bacillus cereus [17]) | MBC (Escherichia coli [18]) | also measured
1 | S=c1n(CN2CCCC2)nc(-c2cccc(Cl)c2)n1-c1ccccc1 | 125 µg/mL (≈ 337 µM) | 125 µg/mL (≈ 337 µM) | > 1000 µg/mL | 125 µg/mL (≈ 337 µM) | 500 µg/mL (≈ 1350 µM) | 500 µg/mL (≈ 1350 µM) | 125 µg/mL (≈ 337 µM) | 500 µg/mL (≈ 1350 µM) | 500 µg/mL (≈ 1350 µM) | > 1000 µg/mL | 1000 µg/mL (≈ 2700 µM) | 500 µg/mL (≈ 1350 µM) | 500 µg/mL (≈ 1350 µM) | 125 µg/mL (≈ 337 µM) | 250 µg/mL (≈ 674 µM) | 1000 µg/mL (≈ 2700 µM) | 125 µg/mL (≈ 337 µM) | 500 µg/mL (≈ 1350 µM) | –
2 | COc1ccc(-n2c(-c3cccc(Cl)c3)nn(CN3CCCC3)c2=S)cc1 | 250 µg/mL (≈ 624 µM) | 125 µg/mL (≈ 312 µM) | > 1000 µg/mL | 250 µg/mL (≈ 624 µM) | 250 µg/mL (≈ 624 µM) | 500 µg/mL (≈ 1250 µM) | 250 µg/mL (≈ 624 µM) | 500 µg/mL (≈ 1250 µM) | 500 µg/mL (≈ 1250 µM) | > 1000 µg/mL | 1000 µg/mL (≈ 2490 µM) | 500 µg/mL (≈ 1250 µM) | 500 µg/mL (≈ 1250 µM) | 125 µg/mL (≈ 312 µM) | 250 µg/mL (≈ 624 µM) | 1000 µg/mL (≈ 2490 µM) | 125 µg/mL (≈ 312 µM) | 500 µg/mL (≈ 1250 µM) | –
3 | S=c1n(CN2CCCC2)nc(-c2cccc(Cl)c2)n1-c1ccccc1Br | 500 µg/mL (≈ 1110 µM) | 250 µg/mL (≈ 556 µM) | > 1000 µg/mL | 250 µg/mL (≈ 556 µM) | > 1000 µg/mL | > 1000 µg/mL | > 1000 µg/mL | > 1000 µg/mL | > 1000 µg/mL | > 1000 µg/mL | > 1000 µg/mL | > 1000 µg/mL | > 1000 µg/mL | 500 µg/mL (≈ 1110 µM) | > 1000 µg/mL | > 1000 µg/mL | > 1000 µg/mL | > 1000 µg/mL | –
4 | S=c1n(CN2CCCC2)nc(-c2cccc(Cl)c2)n1-c1ccc(I)cc1 | 250 µg/mL (≈ 503 µM) | 125 µg/mL (≈ 252 µM) | > 1000 µg/mL | 250 µg/mL (≈ 503 µM) | > 1000 µg/mL | > 1000 µg/mL | 125 µg/mL (≈ 252 µM) | 1000 µg/mL (≈ 2010 µM) | > 1000 µg/mL | > 1000 µg/mL | > 1000 µg/mL | 1000 µg/mL (≈ 2010 µM) | 1000 µg/mL (≈ 2010 µM) | 125 µg/mL (≈ 252 µM) | 1000 µg/mL (≈ 2010 µM) | > 1000 µg/mL | 125 µg/mL (≈ 252 µM) | > 1000 µg/mL | –
5 | S=c1n(CN2CCCC2)nc(-c2cccc(Cl)c2)n1-c1ccccc1I | 500 µg/mL (≈ 1010 µM) | 500 µg/mL (≈ 1010 µM) | > 1000 µg/mL | 500 µg/mL (≈ 1010 µM) | > 1000 µg/mL | > 1000 µg/mL | 250 µg/mL (≈ 503 µM) | > 1000 µg/mL | > 1000 µg/mL | > 1000 µg/mL | > 1000 µg/mL | > 1000 µg/mL | > 1000 µg/mL | 500 µg/mL (≈ 1010 µM) | > 1000 µg/mL | > 1000 µg/mL | 500 µg/mL (≈ 1010 µM) | > 1000 µg/mL | –
6 | S=c1n(CN2CCCC2)nc(-c2cccc(Cl)c2)n1-c1ccc(Cl)cc1 | 1000 µg/mL (≈ 2470 µM) | 125 µg/mL (≈ 308 µM) | > 1000 µg/mL | > 1000 µg/mL | 1000 µg/mL (≈ 2470 µM) | > 1000 µg/mL | 125 µg/mL (≈ 308 µM) | 125 µg/mL (≈ 308 µM) | 1000 µg/mL (≈ 2470 µM) | > 1000 µg/mL | 1000 µg/mL (≈ 2470 µM) | > 1000 µg/mL | > 1000 µg/mL | 1000 µg/mL (≈ 2470 µM) | 500 µg/mL (≈ 1230 µM) | 1000 µg/mL (≈ 2470 µM) | 125 µg/mL (≈ 308 µM) | 1000 µg/mL (≈ 2470 µM) | –
7 | Fc1ccc(-n2c(-c3cccc(Cl)c3)nn(CN3CCCC3)c2=S)cc1 | 125 µg/mL (≈ 321 µM) | 125 µg/mL (≈ 321 µM) | 1000 µg/mL (≈ 2570 µM) | 125 µg/mL (≈ 321 µM) | 500 µg/mL (≈ 1290 µM) | 500 µg/mL (≈ 1290 µM) | 125 µg/mL (≈ 321 µM) | 250 µg/mL (≈ 643 µM) | 500 µg/mL (≈ 1290 µM) | > 1000 µg/mL | 500 µg/mL (≈ 1290 µM) | 250 µg/mL (≈ 643 µM) | 250 µg/mL (≈ 643 µM) | 125 µg/mL (≈ 321 µM) | 500 µg/mL (≈ 1290 µM) | 500 µg/mL (≈ 1290 µM) | 250 µg/mL (≈ 643 µM) | 500 µg/mL (≈ 1290 µM) | –
8 | Fc1ccc(F)c(-n2c(-c3cccc(Cl)c3)nn(CN3CCCC3)c2=S)c1 | 125 µg/mL (≈ 307 µM) | 125 µg/mL (≈ 307 µM) | – | 125 µg/mL (≈ 307 µM) | 500 µg/mL (≈ 1230 µM) | – | 125 µg/mL (≈ 307 µM) | 500 µg/mL (≈ 1230 µM) | > 1000 µg/mL | > 1000 µg/mL | 1000 µg/mL (≈ 2460 µM) | 500 µg/mL (≈ 1230 µM) | 1000 µg/mL (≈ 2460 µM) | 125 µg/mL (≈ 307 µM) | 250 µg/mL (≈ 614 µM) | 1000 µg/mL (≈ 2460 µM) | 125 µg/mL (≈ 307 µM) | > 1000 µg/mL | MBC (Proteus mirabilis [3]): > 1000 µg/mL; MIC (Proteus mirabilis [6]): 500 µg/mL (≈ 1230 µM)
9 | Fc1cccc(F)c1-n1c(-c2cccc(Cl)c2)nn(CN2CCCC2)c1=S | 125 µg/mL (≈ 307 µM) | 125 µg/mL (≈ 307 µM) | – | 125 µg/mL (≈ 307 µM) | 500 µg/mL (≈ 1230 µM) | – | 125 µg/mL (≈ 307 µM) | 500 µg/mL (≈ 1230 µM) | – | 1000 µg/mL (≈ 2460 µM) | 1000 µg/mL (≈ 2460 µM) | 500 µg/mL (≈ 1230 µM) | 500 µg/mL (≈ 1230 µM) | – | – | 1000 µg/mL (≈ 2460 µM) | 125 µg/mL (≈ 307 µM) | 1000 µg/mL (≈ 2460 µM) | MBC (Proteus mirabilis [3]): 1000 µg/mL (≈ 2460 µM); MIC (Proteus mirabilis [6]): 1000 µg/mL (≈ 2460 µM); MBC (Klebsiella pneumoniae [9]): 1000 µg/mL (≈ 2460 µM); MBC (Micrococcus luteus [14]): 1000 µg/mL (≈ 2460 µM); MBC (Klebsiella pneumoniae [15]): 1000 µg/mL (≈ 2460 µM)
